Laboratory results as given in US10206394B2, “Herbicidal compounds” (Syngenta Participations AG, priority 2014, dated 2019).
Where two headings read alike, the source gives them in different places.

Columns and labels:
Assay in all cases: Glasshouse assay for herbicidal activity (pre- and post-emergence), percentage phytotoxicity
Assay type in all cases: in vivo
Lolium perenne (LOLPE) = details: Lolium perenne
Method in brief: (§1)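 Pot-grown, standard soil. PRE: spray 1 d post-sowing; POST: ~12 d. Glasshouse 24/18 °C (warm spp.) / 20/16 °C (cool spp.), 16 h light, 65% RH, watered 2×/day. Visual % damage, 20 DAA PRE, 15 DAA POST.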

[1] = test system: Alopecurus myosuroides (ALOMY); details: Alopecurus myosuroides
Method in brief: as §1

Avena fatua (AVEFA) = details: Avena fatua
Method in brief: as §1

[2] = test system: Echinochloa crus-galli (ECHCG); details: Echinochloa crus-galli
Method in brief: as §1

[3] = post-emergence, 360 h, POST-emergence, rate 250 g/ha, visual score 15 DAA (100%=total damage, 0%=no damage), read-out: Post-emergence herbicidal activity (percentage phytotoxicity) LOLPE POST
[4] = pre-emergence, 480 h, PRE-emergence, rate 250 g/ha, visual score 20 DAA (100%=total damage, 0%=no damage), read-out: Pre-emergence herbicidal activity (percentage phytotoxicity) LOLPE PRE
[5] = post-emergence, 360 h, POST-emergence, rate 250 g/ha, visual score 15 DAA (100%=total damage, 0%=no damage), read-out: Post-emergence herbicidal activity (percentage phytotoxicity) ALOMY POST
[6] = pre-emergence, 480 h, PRE-emergence, rate 250 g/ha, visual score 20 DAA (100%=total damage, 0%=no damage), read-out: Pre-emergence herbicidal activity (percentage phytotoxicity) ALOMY PRE
[7] = post-emergence, 360 h, POST-emergence, rate 250 g/ha, visual score 15 DAA (100%=total damage, 0%=no damage), read-out: Post-emergence herbicidal activity (percentage phytotoxicity) AVEFA POST
[8] = pre-emergence, 480 h, PRE-emergence, rate 250 g/ha, visual score 20 DAA (100%=total damage, 0%=no damage), read-out: Pre-emergence herbicidal activity (percentage phytotoxicity) AVEFA PRE
[9] = post-emergence, 360 h, POST-emergence, rate 250 g/ha, visual score 15 DAA (100%=total damage, 0%=no damage), read-out: Post-emergence herbicidal activity (percentage phytotoxicity) ECHCG POST
[10] = pre-emergence, 480 h, PRE-emergence, rate 250 g/ha, visual score 20 DAA (100%=total damage, 0%=no damage), read-out: Pre-emergence herbicidal activity (percentage phytotoxicity) ECHCG PRE
[11] = post-emergence, 360 h, 250 g/ha, post-emergence, 15 DAA, visual assessment (100%=total damage, 0%=no damage), read-out: Post-emergence herbicidal activity (percentage phytotoxicity) LOLPE POST
[12] = pre-emergence, 480 h, 250 g/ha, pre-emergence, 20 DAA, visual assessment (100%=total damage, 0%=no damage), read-out: Pre-emergence herbicidal activity (percentage phytotoxicity) LOLPE PRE
[13] = post-emergence, 360 h, 250 g/ha, post-emergence, 15 DAA, visual assessment (100%=total damage, 0%=no damage), read-out: Post-emergence herbicidal activity (percentage phytotoxicity) ALOMY POST
[14] = pre-emergence, 480 h, 250 g/ha, pre-emergence, 20 DAA, visual assessment (100%=total damage, 0%=no damage), read-out: Pre-emergence herbicidal activity (percentage phytotoxicity) ALOMY PRE
[15] = post-emergence, 360 h, 250 g/ha, post-emergence, 15 DAA, visual assessment (100%=total damage, 0%=no damage), read-out: Post-emergence herbicidal activity (percentage phytotoxicity) AVEFA POST
[16] = pre-emergence, 480 h, 250 g/ha, pre-emergence, 20 DAA, visual assessment (100%=total damage, 0%=no damage), read-out: Pre-emergence herbicidal activity (percentage phytotoxicity) AVEFA PRE
[17] = post-emergence, 360 h, 250 g/ha, post-emergence, 15 DAA, visual assessment (100%=total damage, 0%=no damage), read-out: Post-emergence herbicidal activity (percentage phytotoxicity) ECHCG POST
[18] = pre-emergence, 480 h, 250 g/ha, pre-emergence, 20 DAA, visual assessment (100%=total damage, 0%=no damage), read-out: Pre-emergence herbicidal activity (percentage phytotoxicity) ECHCG PRE

## Cc1cc(-c2ccc(F)cn2)cc(C)c1C1C(=O)CC(CC(=O)NC/C=C/Cl)C1=O (centres unmarked) [Compound B400]
Lolium perenne (LOLPE); post-emergence, 360 h, Rate 250 g/ha, post-emergence, visual assessment 15 DAA, 100%=total damage, 0%=no damage, read-out: Post-emergence herbicidal activity (percentage phytotoxicity) LOLPE POST
  pest or weed control at 250 g/ha: 90%
Lolium perenne (LOLPE); pre-emergence, 480 h, Rate 250 g/ha, pre-emergence, visual assessment 20 DAA, 100%=total damage, 0%=no damage, read-out: Pre-emergence herbicidal activity (percentage phytotoxicity) LOLPE PRE
  pest or weed control at 250 g/ha: 100%
[1]; post-emergence, 360 h, Rate 250 g/ha, post-emergence, visual assessment 15 DAA, 100%=total damage, 0%=no damage, read-out: Post-emergence herbicidal activity (percentage phytotoxicity) ALOMY POST
  pest or weed control at 250 g/ha: 100%
[1]; pre-emergence, 480 h, Rate 250 g/ha, pre-emergence, visual assessment 20 DAA, 100%=total damage, 0%=no damage, read-out: Pre-emergence herbicidal activity (percentage phytotoxicity) ALOMY PRE
  pest or weed control at 250 g/ha: 100%
Avena fatua (AVEFA); post-emergence, 360 h, Rate 250 g/ha, post-emergence, visual assessment 15 DAA, 100%=total damage, 0%=no damage, read-out: Post-emergence herbicidal activity (percentage phytotoxicity) AVEFA POST
  pest or weed control at 250 g/ha: 100%
Avena fatua (AVEFA); pre-emergence, 480 h, Rate 250 g/ha, pre-emergence, visual assessment 20 DAA, 100%=total damage, 0%=no damage, read-out: Pre-emergence herbicidal activity (percentage phytotoxicity) AVEFA PRE
  pest or weed control at 250 g/ha: 100%
[2]; post-emergence, 360 h, Rate 250 g/ha, post-emergence, visual assessment 15 DAA, 100%=total damage, 0%=no damage, read-out: Post-emergence herbicidal activity (percentage phytotoxicity) ECHCG POST
  pest or weed control at 250 g/ha: 100%
[2]; pre-emergence, 480 h, Rate 250 g/ha, pre-emergence, visual assessment 20 DAA, 100%=total damage, 0%=no damage, read-out: Pre-emergence herbicidal activity (percentage phytotoxicity) ECHCG PRE
  pest or weed control at 250 g/ha: 100%

## C#CCN(C)C(=O)CC1CC(=O)C(c2c(C)cc(OCC(F)(F)F)cc2CC)C1=O (centres unmarked) [Compound B222]
Lolium perenne (LOLPE); [3]
  pest or weed control at 250 g/ha: 100%
Lolium perenne (LOLPE); [4]
  pest or weed control at 250 g/ha: 100%
[1]; [5]
  pest or weed control at 250 g/ha: 100%
[1]; [6]
  pest or weed control at 250 g/ha: 100%
Avena fatua (AVEFA); [7]
  pest or weed control at 250 g/ha: 100%
Avena fatua (AVEFA); [8]
  pest or weed control at 250 g/ha: 90%
[2]; [9]
  pest or weed control at 250 g/ha: 100%
[2]; [10]
  pest or weed control at 250 g/ha: 100%

## CCc1cc(OCC(F)(F)F)cc(C)c1C1C(=O)CC(CC(=O)N2CCOCC2)C1=O (centres unmarked) [Compound B164]
Lolium perenne (LOLPE); [11]
  pest or weed control at 250 g/ha: 100%
Lolium perenne (LOLPE); [12]
  pest or weed control at 250 g/ha: 100%
[1]; [13]
  pest or weed control at 250 g/ha: 100%
[1]; [14]
  pest or weed control at 250 g/ha: 100%
Avena fatua (AVEFA); [15]
  pest or weed control at 250 g/ha: 90%
Avena fatua (AVEFA); [16]
  pest or weed control at 250 g/ha: 100%
[2]; [17]
  pest or weed control at 250 g/ha: 100%
[2]; [18]
  pest or weed control at 250 g/ha: 100%

## Cc1ccc(CNC(=O)CC2CC(=O)C(c3c(C)cc(C)cc3C)C2=O)nc1 (centres unmarked) [Compound A23]
Lolium perenne (LOLPE); post-emergence, 360 h, Rate 250 g/ha, post-emergence, assessed visually 15 DAA, 100%=total damage, 0%=no damage, read-out: Post-emergence herbicidal activity (percentage phytotoxicity) LOLPE POST
  pest or weed control at 250 g/ha: 80%
Lolium perenne (LOLPE); pre-emergence, 480 h, Rate 250 g/ha, pre-emergence, assessed visually 20 DAA, 100%=total damage, 0%=no damage, read-out: Pre-emergence herbicidal activity (percentage phytotoxicity) LOLPE PRE
  pest or weed control at 250 g/ha: 70%
[1]; post-emergence, 360 h, Rate 250 g/ha, post-emergence, assessed visually 15 DAA, 100%=total damage, 0%=no damage, read-out: Post-emergence herbicidal activity (percentage phytotoxicity) ALOMY POST
  pest or weed control at 250 g/ha: 80%
[1]; pre-emergence, 480 h, Rate 250 g/ha, pre-emergence, assessed visually 20 DAA, 100%=total damage, 0%=no damage, read-out: Pre-emergence herbicidal activity (percentage phytotoxicity) ALOMY PRE
  pest or weed control at 250 g/ha: 80%
Avena fatua (AVEFA); post-emergence, 360 h, Rate 250 g/ha, post-emergence, assessed visually 15 DAA, 100%=total damage, 0%=no damage, read-out: Post-emergence herbicidal activity (percentage phytotoxicity) AVEFA POST
  pest or weed control at 250 g/ha: 70%
Avena fatua (AVEFA); pre-emergence, 480 h, Rate 250 g/ha, pre-emergence, assessed visually 20 DAA, 100%=total damage, 0%=no damage, read-out: Pre-emergence herbicidal activity (percentage phytotoxicity) AVEFA PRE
  pest or weed control at 250 g/ha: 60%
[2]; post-emergence, 360 h, Rate 250 g/ha, post-emergence, assessed visually 15 DAA, 100%=total damage, 0%=no damage, read-out: Post-emergence herbicidal activity (percentage phytotoxicity) ECHCG POST
  pest or weed control at 250 g/ha: 90%
[2]; pre-emergence, 480 h, Rate 250 g/ha, pre-emergence, assessed visually 20 DAA, 100%=total damage, 0%=no damage, read-out: Pre-emergence herbicidal activity (percentage phytotoxicity) ECHCG PRE
  pest or weed control at 250 g/ha: 100%

## C/C=C/c1cc(C)c(C2C(=O)CC(CC(=O)NC(C)C)C2=O)c(CC)c1 (centres unmarked) [Compound B192]
Lolium perenne (LOLPE); [3]
  pest or weed control at 250 g/ha: 100%
Lolium perenne (LOLPE); [4]
  pest or weed control at 250 g/ha: 100%
[1]; [5]
  pest or weed control at 250 g/ha: 100%
[1]; [6]
  pest or weed control at 250 g/ha: 100%
Avena fatua (AVEFA); [7]
  pest or weed control at 250 g/ha: 100%
Avena fatua (AVEFA); [8]
  pest or weed control at 250 g/ha: 90%
[2]; [9]
  pest or weed control at 250 g/ha: 100%
[2]; [10]
  pest or weed control at 250 g/ha: 100%

## Cc1cc(C)c(C2C(=O)CC(CC(=O)NC(C#N)C3CC3)C2=O)c(C)c1 (centres unmarked) [Compound B58]
Lolium perenne (LOLPE); [11]
  pest or weed control at 250 g/ha: 50%
Lolium perenne (LOLPE); [12]
  pest or weed control at 250 g/ha: 20%
[1]; [13]
  pest or weed control at 250 g/ha: 50%
[1]; [14]
  pest or weed control at 250 g/ha: 10%
Avena fatua (AVEFA); [15]
  pest or weed control at 250 g/ha: 70%
Avena fatua (AVEFA); [16]
  pest or weed control at 250 g/ha: 40%
[2]; [17]
  pest or weed control at 250 g/ha: 20%
[2]; [18]
  pest or weed control at 250 g/ha: 20%

## Cc1cc(-c2ncc(Cl)cc2Cl)cc(C)c1C1C(=O)CC(CC(=O)NC(C)(C)C)C1=O (centres unmarked) [Compound A168]
Lolium perenne (LOLPE); post-emergence, 360 h, post-emergence, 250 g/ha, 15 DAA, visual score (100%=total damage; 0%=no damage), read-out: LOLPE POST herbicidal activity (percentage phytotoxicity)
  pest or weed control at 250 g/ha: 100%
Lolium perenne (LOLPE); pre-emergence, 480 h, pre-emergence, 250 g/ha, 20 DAA, visual score (100%=total damage; 0%=no damage), read-out: LOLPE PRE herbicidal activity (percentage phytotoxicity)
  pest or weed control at 250 g/ha: 80%
[1]; post-emergence, 360 h, post-emergence, 250 g/ha, 15 DAA, visual score (100%=total damage; 0%=no damage), read-out: ALOMY POST herbicidal activity (percentage phytotoxicity)
  pest or weed control at 250 g/ha: 90%
[1]; pre-emergence, 480 h, pre-emergence, 250 g/ha, 20 DAA, visual score (100%=total damage; 0%=no damage), read-out: ALOMY PRE herbicidal activity (percentage phytotoxicity)
  pest or weed control at 250 g/ha: 80%
Avena fatua (AVEFA); post-emergence, 360 h, post-emergence, 250 g/ha, 15 DAA, visual score (100%=total damage; 0%=no damage), read-out: AVEFA POST herbicidal activity (percentage phytotoxicity)
  pest or weed control at 250 g/ha: 90%
Avena fatua (AVEFA); pre-emergence, 480 h, pre-emergence, 250 g/ha, 20 DAA, visual score (100%=total damage; 0%=no damage), read-out: AVEFA PRE herbicidal activity (percentage phytotoxicity)
  pest or weed control at 250 g/ha: 20%
[2]; post-emergence, 360 h, post-emergence, 250 g/ha, 15 DAA, visual score (100%=total damage; 0%=no damage), read-out: ECHCG POST herbicidal activity (percentage phytotoxicity)
  pest or weed control at 250 g/ha: 100%
[2]; pre-emergence, 480 h, pre-emergence, 250 g/ha, 20 DAA, visual score (100%=total damage; 0%=no damage), read-out: ECHCG PRE herbicidal activity (percentage phytotoxicity)
  pest or weed control at 250 g/ha: 80%
